The source of these data is paper PMC10591299, “Targeting SHP2 with an Active Site Inhibitor Blocks Signaling and Breast Cancer Cell Phenotypes” (ACS Bio & Med Chem Au, 2023).

Each structure is given as a SMILES string. Where two headings read alike, the source gives them in different places.

Common to all, as to assay type: cell-based
Assay [1] concerns BT474 cells. In words: Basal pAkt and pERK1/2 signaling by immunoblotting in BT474 cells. Particulars: Homo sapiens, BT-474. On the procedure: Since SHP2 is an essential mediator of mitogenic and cell survival signaling in breast cancer cells, we determined the effect of CNBCA treatment on activation of ERK1/2 and Akt in the HER2-positive BT474 and in the triple-negative MDA-MB468 cell lines. Cells growing in 2D culture were treated with varying concentrations of CNBCA, ranging from 0.250 to 2.0 μM, for 48 h, and total cell lysates were analyzed by immunoblotting (IB) with antibodies that recognize the activated forms of ERK1/2 (pERK1/2) and Akt (pAkt).
For orientation: A western blot detects proteins with antibodies after separation by electrophoresis.

For assay [2], the system named is MDA-MB468 cells. In words: Cell growth in 2D culture, MDA-MB468. Particulars: MDA-MB468, 500 nM, 72 h; vehicle treated cells grew to confluency. On the procedure: (§1) Since SHP2 is essential for the growth and transformation of BC cells,[8],[9],[11] we determined the effect of SHP2 inhibition with CNBCA in 2D and 3D culture systems. For the effect on cell growth, BC cells (BT474 and MDA-MB468) were seeded in 2D culture and treated with a single concentration of CNBCA (500 nM), the concentration that provided a 50% inhibition of SHP2 mediated signaling in BT474 cells. Images were collected at the start and every 24 h for a total of 72 h (3 days). […] For effect on anchorage independent growth, approximately 10^6 cells were seeded in soft agar as described previously,[24] and treated with CNBCA at 500 nM concentration for 10 days with refeeding and adjustment of compound concentration. […] Finally, the effect of CNBCA on cancer stem cell properties was determined by the suspension assay, in which only cells with stem-like properties only can grow and form mammospheres.[7],[24],[36] Approximately 10^6 cells were seeded in nonadherent 6 cm plates and treated with CNBCA (500 nM) for 10 days with complementation of media and drug concentration.

The test system of assay [3] is BT474 cells. In words: Colony formation in soft agar, BT474. The conditions noted are these: BT474, 500 nM, 10 days, versus vehicle. On the procedure:
as §1
(§2) For colony formation studies, we used the soft agar assay, which keeps cells anchorage independently, allowing determination on the transformation phenotype of cancer cells, including breast cancer cells.[11],[35] For this assay, we first prepared a 5% stock suspension in PBS by boiling it in a microwave. […]

Assay [4] relates to MDA-MB468 cells. In words: Colony formation in soft agar, MDA-MB468. Particulars: MDA-MB468, 500 nM, 10 days, versus vehicle. The method, then: as §1, §2
Assay [5] relates to BT474 cells. In words: Mammosphere formation in suspension culture, BT474. Particulars: BT474, 500 nM, 10 days, versus vehicle. On the procedure:
as §1
To further evaluate the anti-breast cancer cell effect of CNBCA, we treated cells seeded in a suspension culture known as the mammosphere assay. In this assay, cells with cancer stem cell properties can grow and form sphere-like cellular aggregates known as mammospheres.[7],[38] […]

On to `CCCCCCCCCOc1ccc(-c2ccc(C(=O)O)cc2)cc1CCCC(=O)O` [CNBCA, 3′-(3-carboxypropyl)-4′-(nonyloxy)-[1,1′-biphenyl]-4-carboxylic acid], for which the IC50 is approximately 1 µM with BT474 cells [1] (BT474, 48 h treatment, band density pAkt and pERK1/2, read-out: IC50 for SHP2 mediated Akt and ERK1/2 activation); 0.5 µM in the assay with BT474 cells [1] (BT474 cells, read-out: concentration that provided a 50% inhibition of SHP2 mediated signaling). The “cell growth in 2D culture” value in the assay with MDA-MB468 cells [2] is given as “half-confluent”. Besides, the “colony formation in soft agar” value is “fewer and smaller colonies” in the assay on BT474 cells [3]; “fewer and smaller colonies” in the assay on MDA-MB468 cells [4]. Moreover, in the assay on BT474 cells [5], the mammosphere formation entry is “fewer and smaller mammospheres”.
